Measurements from US20030003071A1, “Hair growth stimulant” (priority 2000, published 2003).

Columns and labels:
[1] = system: cultured rat hair follicle epithelial cells; assay: Cell proliferation test using cultured rat hair follicle epithelial cells (alamar blue); type: cell-based; conditions: object substance concentration 1.0×10^−5% in KBM medium, 2 days culture, negative control 0, positive control (insulin + hydrocortisone) 1
Excerpt: B. Rat Hair Follicle Epithelial Cells
1. Collection of Rat Hair Follicle Epithelial Cells
(1) Collection of Hair Follicles
Dorsal skin was collected from newborn (3˜4-day-old) rats, and this collected dorsal skin was soaked two pieces at a time in PBS (−) containing 1% PSF.
Lower parts such as subcutaneous fat and membranes were then removed from the dermal fat layer using dissecting scissors.
Next, the dorsal skin was again soaked in PBS (−) containing 1% PSF, and was then soaked overnight at 4° C. in PBS (−) containing 0.25% trypsin (also containing 0.02% EDTA; likewise hereinafter). […]
A cell freezing liquid (Cellbanker; made by DAIYATRON) was added to the hair follicle epithelial cells, the concentration was adjusted to 1.5×10^7 cells/ml, 1.5×10^7 cells were put into each freezing tube, and storage was carried out by freezing. The number of cells was calculated using a haemacyto meter. […]

[2] = system: cultured human hair follicle epithelial cells; assay: Cell proliferation test using cultured human hair follicle epithelial cells (alamar blue); type: cell-based; conditions: object substance concentration 1.0×10^−5% in KBM medium, 2 days culture, negative control 0, positive control (insulin + hydrocortisone) 1
Description: <Cell Proliferation Tests Using Cultured Hair Follicle Epithelial Cells>
A. Human Hair Follicle Epithelial Cells
1. Collection of Human Hair Follicle Epithelial Cells
Hair follicles in the growth period of the hair cycle were collected mechanically under a stereoscopic microscope from male human scalp skin obtained as a by-product from surgery.
The growth period hair follicles were treated for 30 minutes at 37° C. with Dulbecco's modified MEM (DMEM) containing 1000 U/ml dispase and 0.2% collagenase, and the dermal sheath, dermal papilla and hair bulb epithelial tissue were removed using the tip of an injection needle, and then treatment was carried out for 5 minutes at 37° C. with a phosphate buffer solution (PBS(−); ‘(−)’ means not containing calcium ions, magnesium ions etc.) containing 0.05% trypsin and 0.02% EDTA. […]
Next, the cells were suspended in the above-mentioned serum-free medium, sowing was carried out in a collagen-coated (type I) culture dish at a density of 5000 cells/cm^2, medium exchange was carried out every 2 days until the cells became subconfluent, and then treatment was again carried out for 5 minutes at 37° C. with 0.05 wt % trypsin and 0.02% EDTA, the reaction was then stopped with an equivalent of 0.1% trypsin inhibitor, and centrifuging (800×g, 5 minutes) was carried out. […] The number of cells was calculated using a haemacyto meter. […]

[3] = system: immortalized outer hair root sheath cells; assay: Immortalized outer hair root sheath cell proliferation test (cellular DNA, Hoechst 33258); type: cell-based, human; conditions: 10 nM, 1 μM, 100 μM or 10 mM in KBM; 4 days culture; negative control = 100
Description: <Immortalized Outer Hair Root Sheath Cell Proliferation Tests>
[Culturing of Immortalized Outer Hair Root Sheath Cells]
Hair follicles were isolated from human scalp skin using scissors under a stereoscopic microscope. The hair follicles were cut off at the lower part of the sebaceous gland, and enzyme treatment was carried out with collagenase and dispase.
The hair bulb was cut off with scissors and excluded, and the hair shaft was separated with tweezers.
The hair shaft was subjected to enzyme treatment with trypsin, and then the reaction was stopped with trypsin inhibitor.
Centrifuging was carried out, the supernatant was thrown away, and the outer hair root sheath cells were recovered. […]
First generation cultured outer hair root sheath cells cultured until the cloning confluence of the cells was about 50% were washed with K-SFM, and then infection was carried out by adding the above-mentioned virus in a quantity of 1, 10 or 30 MOI (multiplicity of infection). […]
The cells were thawed, and were then added to each […], and smashed up with sonication. The cells were then transferred into a cuvette, and the fluorescence intensity was measured at an excitation wavelength of 356 nm and a fluorescence wavelength of 460 nm.

## CNCCS(=O)(=O)O [N-methyltaurine]
[1]
  Cell proliferation effect (cell proliferation index): 0.62
[2]
  Cell proliferation effect (cell proliferation index): 0.64
[3]
  Immortalized outer hair root sheath cell activation action (extent of cell proliferation, relative DNA amount, FIG. 1): has an immortalized outer hair root sheath cell activation action
